Measurements as given in PMC4362760, “JAK2^V617F Drives Mcl-1 Expression and Sensitizes Hematologic Cell Lines to Dual Inhibition of JAK2 and Bcl-xL” (PLoS ONE, 2015).

Key:
HEL cells = assay: Cell viability of HEL cells after siRNA transfection and 72 hr ABT-263; type: cell-based
Method: Transfection of siRNAs was performed using Lipofectamine RNAiMAX according to the manufacturer’s recommendations. […] Caspase-3 activity was determined using the Caspase-GLO 3/7 Assay (Promega) in parallel with the CellTiter-GLO viability assay (Promega). The data are expressed as Caspase-3/7 activity divided by cell viability. […]

SET-2 cells = assay: alamarBlue cell viability, JAKi-I/ABT-263 combination, 72 hr, SET-2; type: cell-based; settings: SET-2, 72h, Jaki-1 0 uM
Method: (§1) Transfection of siRNAs was performed using Lipofectamine RNAiMAX according to the manufacturer’s recommendations. […] Caspase-3 activity was determined using the Caspase-GLO 3/7 Assay (Promega) in parallel with the CellTiter-GLO viability assay (Promega). The data are expressed as Caspase-3/7 activity divided by cell viability.
(§2) Caspase-3 activity was determined at each time point. Data are from duplicate samples and are representative of at least three independent experiments. (D-G) Cells were treated in combination as indicated, and cell viability was determined after 72 hr. Data are means of duplicate determinations, and are representative of at least three independent experiments. […] Drugs were added simultaneously, and cell viability was determined after 72 hr. The data were then analyzed using the drug-drug interaction model of Bliss additivity^16 to define dose combinations that were synergistic (values >15; red), antagonistic (values <-15; blue), or without effect (-15<values<15; gray). (I) Model of JAK2/Bcl-2 family inhibitor synergy. JAK2^V617F constitutively phosphorylates and activates STAT3/5, thus enforcing expression of the transcriptional target, Mcl-1. Mcl-1 collaborates with Bcl-XL to oppose apoptosis and support viability.
(§3) Supplementary file pone.0114363.s006.xls: S6 Dataset Cells were treated in combination as indicated, and cell viability was determined using alamarBlue after 72 hr. Data are means of duplicate determinations, and are representative of at least three independent experiments. (XLS) Click here for additional data file.

MV4;11 cells = assay: alamarBlue cell viability, JAKi-I/ABT-263 combination, 72 hr, MV4;11; type: cell-based; settings: MV4;11, 72h, Jaki-1 0 uM
Method: as §1, §2, §3

Bcl-w = settings: cited from earlier work
PKCzeta = PKCzeta (Homo sapiens, UniProt Q05513); assay: TR-FRET Kinome PKCzeta; type: binding; settings: PKCzeta Millipore IVGN Tracer .05(Subs Conc)
Text: (§4) (XLS) Click here for additional data file.

PKG1A = PKG1A (Homo sapiens, UniProt Q13976); assay: TR-FRET Kinome PKG1A; type: binding; settings: PKG1A Millipore .05(Subs Conc)
Text: as §4

Rock2 = Rock2 (Homo sapiens, UniProt O75116); assay: TR-FRET Kinome Rock2; type: binding; settings: Rock2 Invitrogen .012(Subs Conc)
Text: as §4

Bcl-XL = Bcl-XL protein level by immunoblotting; type: cell-based; settings: 24-hr time course
Method: SET-2, HEL, MV4;11, and K562 cells were obtained from ATCC and cultured as recommended. UKE-1 cells were purchased from Walter Fiedler (University of Hamburg). Cell lysates were either prepared using CHAPS lysis buffer (10 mM HEPES, pH 7.4, 150 mM NaCl, 1% CHAPS) or cell extraction buffer containing 1% Triton X-100, 0.1% SDS, and 0.5% deoxycholate. All buffers were supplemented with protease and phosphatase inhibitor cocktails prior to use.
Fig 1 Regulation of Mcl-1 and Bcl-XL by JAK2 ^V617F. […] Tyrosine phoshorylation of STAT3 and STAT5 was determined by immunoblotting. […] Constitutive tyrosine phosphorylation of STAT3 and STAT5 was determined by immunoblotting. […] Data represent means +/- standard deviation for two independent determinations each performed in triplicate. […] (G) Quantification of the data shown in (F). Data are expressed as the ratio of intensity of Mcl-1/β-actin for each time point. […] Data are means of duplicate samples and are representative of two independent experiments.

Chain of Rock2 (O75116 whole entry): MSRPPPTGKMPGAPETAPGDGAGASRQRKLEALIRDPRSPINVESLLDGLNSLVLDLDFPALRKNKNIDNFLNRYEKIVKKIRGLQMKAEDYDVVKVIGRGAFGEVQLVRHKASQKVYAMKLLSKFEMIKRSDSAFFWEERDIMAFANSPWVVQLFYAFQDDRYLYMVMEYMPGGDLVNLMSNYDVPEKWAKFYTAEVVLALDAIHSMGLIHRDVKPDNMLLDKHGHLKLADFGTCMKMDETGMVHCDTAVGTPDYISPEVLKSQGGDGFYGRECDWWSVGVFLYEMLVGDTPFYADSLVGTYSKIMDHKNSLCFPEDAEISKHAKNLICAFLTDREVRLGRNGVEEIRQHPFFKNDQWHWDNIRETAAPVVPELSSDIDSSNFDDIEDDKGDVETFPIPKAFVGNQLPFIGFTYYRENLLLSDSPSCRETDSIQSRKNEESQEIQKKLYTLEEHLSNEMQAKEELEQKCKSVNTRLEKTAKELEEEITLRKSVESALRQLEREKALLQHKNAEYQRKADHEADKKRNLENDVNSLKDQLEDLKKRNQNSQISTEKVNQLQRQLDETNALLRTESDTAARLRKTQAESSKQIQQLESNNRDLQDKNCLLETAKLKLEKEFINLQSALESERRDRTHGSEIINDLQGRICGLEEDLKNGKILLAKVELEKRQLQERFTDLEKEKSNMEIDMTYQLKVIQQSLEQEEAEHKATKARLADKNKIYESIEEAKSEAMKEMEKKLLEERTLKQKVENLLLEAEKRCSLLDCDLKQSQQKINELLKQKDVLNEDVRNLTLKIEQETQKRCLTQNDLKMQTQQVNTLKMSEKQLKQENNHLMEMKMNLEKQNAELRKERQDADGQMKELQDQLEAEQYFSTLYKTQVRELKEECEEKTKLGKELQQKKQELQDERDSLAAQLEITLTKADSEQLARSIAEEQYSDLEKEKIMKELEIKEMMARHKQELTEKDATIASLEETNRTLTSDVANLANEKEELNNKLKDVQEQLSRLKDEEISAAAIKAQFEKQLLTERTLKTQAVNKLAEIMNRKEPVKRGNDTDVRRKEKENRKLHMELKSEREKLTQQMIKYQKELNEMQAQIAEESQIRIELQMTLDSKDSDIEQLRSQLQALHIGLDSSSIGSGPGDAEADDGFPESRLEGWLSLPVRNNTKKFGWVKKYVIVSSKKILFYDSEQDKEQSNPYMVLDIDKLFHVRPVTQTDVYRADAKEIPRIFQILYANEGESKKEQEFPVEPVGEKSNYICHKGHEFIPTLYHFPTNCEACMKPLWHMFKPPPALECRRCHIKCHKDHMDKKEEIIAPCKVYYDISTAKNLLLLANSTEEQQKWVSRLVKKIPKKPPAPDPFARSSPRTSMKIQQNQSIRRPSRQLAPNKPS
Chain of PKG1A (Q13976 whole entry): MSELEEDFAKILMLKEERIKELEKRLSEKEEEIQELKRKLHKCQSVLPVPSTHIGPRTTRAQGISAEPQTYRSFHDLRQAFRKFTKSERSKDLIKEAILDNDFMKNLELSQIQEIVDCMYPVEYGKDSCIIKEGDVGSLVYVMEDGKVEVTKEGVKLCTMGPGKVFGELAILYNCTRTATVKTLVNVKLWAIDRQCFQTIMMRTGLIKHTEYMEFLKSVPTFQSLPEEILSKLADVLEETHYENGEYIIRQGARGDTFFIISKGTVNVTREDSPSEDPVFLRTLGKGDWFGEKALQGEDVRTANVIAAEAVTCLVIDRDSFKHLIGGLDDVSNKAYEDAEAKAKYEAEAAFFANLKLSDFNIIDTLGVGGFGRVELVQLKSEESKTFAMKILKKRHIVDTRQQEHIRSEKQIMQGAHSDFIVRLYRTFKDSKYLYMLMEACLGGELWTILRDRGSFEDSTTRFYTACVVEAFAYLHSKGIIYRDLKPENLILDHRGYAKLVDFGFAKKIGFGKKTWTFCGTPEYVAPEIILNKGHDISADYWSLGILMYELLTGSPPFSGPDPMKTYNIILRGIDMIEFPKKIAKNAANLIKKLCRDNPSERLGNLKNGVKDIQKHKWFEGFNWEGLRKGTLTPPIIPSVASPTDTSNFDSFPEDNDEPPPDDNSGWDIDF
Chain of PKCzeta (Q05513 whole entry): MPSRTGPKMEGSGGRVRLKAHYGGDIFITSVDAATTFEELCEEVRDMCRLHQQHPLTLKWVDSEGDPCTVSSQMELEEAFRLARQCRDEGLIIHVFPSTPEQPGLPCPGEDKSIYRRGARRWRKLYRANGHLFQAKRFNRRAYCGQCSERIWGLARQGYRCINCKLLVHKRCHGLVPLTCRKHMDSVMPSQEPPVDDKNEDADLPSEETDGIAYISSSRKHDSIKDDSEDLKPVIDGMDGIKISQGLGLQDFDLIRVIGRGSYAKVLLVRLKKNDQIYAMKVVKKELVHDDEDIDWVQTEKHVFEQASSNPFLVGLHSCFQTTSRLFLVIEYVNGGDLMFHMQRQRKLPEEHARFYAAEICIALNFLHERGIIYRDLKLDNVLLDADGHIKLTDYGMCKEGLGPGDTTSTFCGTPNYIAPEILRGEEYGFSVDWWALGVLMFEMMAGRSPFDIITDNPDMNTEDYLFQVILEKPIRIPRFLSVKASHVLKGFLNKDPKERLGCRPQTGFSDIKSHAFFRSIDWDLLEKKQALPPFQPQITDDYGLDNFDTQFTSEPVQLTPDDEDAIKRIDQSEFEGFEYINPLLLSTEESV

SMILES: CC1(C)CCC(c2ccc(Cl)cc2)=C(CN2CCN(c3ccc(C(=O)NS(=O)(=O)c4ccc(N[C@H](CCN5CCOCC5)CSc5ccccc5)c(S(=O)(=O)C(F)(F)F)c4)cc3)CC2)C1 [ABT-263]
- Cell Viability (% Inhibiton) (HEL cells; Unt., ABT-263 0.003 uM): 0%
- Cell Viability (% Inhibiton) (HEL cells; Unt., ABT-263 0.01 uM): 0%
- Cell Viability (% Inhibiton) (HEL cells; Unt., ABT-263 0.03 uM): 3%
- Cell Viability (% Inhibiton) (HEL cells; Unt., ABT-263 0.1 uM): 37%
- Cell Viability (% Inhibiton) (HEL cells; Unt., ABT-263 0.3 uM): 94%
- Cell Viability (% Inhibiton) (HEL cells; Unt., ABT-263 1 uM): 97%
- Cell Viability (% Inhibiton) (HEL cells; siMcl1-1, ABT-263 0.003 uM): 0%
- Cell Viability (% Inhibiton) (HEL cells; siMcl1-1, ABT-263 0.01 uM): 0%
- Cell Viability (% Inhibiton) (HEL cells; siMcl1-1, ABT-263 0.03 uM): 0%
- Cell Viability (% Inhibiton) (HEL cells; siMcl1-1, ABT-263 0.1 uM): 40%
- Cell Viability (% Inhibiton) (HEL cells; siMcl1-1, ABT-263 0.3 uM): 97%
- Cell Viability (% Inhibiton) (HEL cells; siMcl1-1, ABT-263 1 uM): 100%
- Cell Viability (% Inhibiton) (HEL cells; siMcl1-2, ABT-263 0.003 uM): 0%
- Cell Viability (% Inhibiton) (HEL cells; siMcl1-2, ABT-263 0.01 uM): 21%
- Cell Viability (% Inhibiton) (HEL cells; siMcl1-2, ABT-263 0.03 uM): 38%
- Cell Viability (% Inhibiton) (HEL cells; siMcl1-2, ABT-263 0.1 uM): 79%
- Cell Viability (% Inhibiton) (HEL cells; siMcl1-2, ABT-263 0.3 uM): 100%
- Cell Viability (% Inhibiton) (HEL cells; siMcl1-2, ABT-263 1 uM): 100%
- Cell Viability (% Inhibiton) (HEL cells; siMcl1-3, ABT-263 0.003 uM): 0%
- Cell Viability (% Inhibiton) (HEL cells; siMcl1-3, ABT-263 0.01 uM): 37%
- Cell Viability (% Inhibiton) (HEL cells; siMcl1-3, ABT-263 0.03 uM): 65%
- Cell Viability (% Inhibiton) (HEL cells; siMcl1-3, ABT-263 0.1 uM): 90%
- Cell Viability (% Inhibiton) (HEL cells; siMcl1-3, ABT-263 0.3 uM): 100%
- Cell Viability (% Inhibiton) (HEL cells; siMcl1-3, ABT-263 1 uM): 100%
- Cell Viability (% Inhibiton) (HEL cells; siMcl1-4, ABT-263 0.003 uM): 0%
- Cell Viability (% Inhibiton) (HEL cells; siMcl1-4, ABT-263 0.01 uM): 58%
- Cell Viability (% Inhibiton) (HEL cells; siMcl1-4, ABT-263 0.03 uM): 85%
- Cell Viability (% Inhibiton) (HEL cells; siMcl1-4, ABT-263 0.1 uM): 94%
- Cell Viability (% Inhibiton) (HEL cells; siMcl1-4, ABT-263 0.3 uM): 100%
- Cell Viability (% Inhibiton) (HEL cells; siMcl1-4, ABT-263 1 uM): 100%
- Cell Viability (% Inhibiton) (HEL cells; siNT-1, ABT-263 0.003 uM): 0%
- Cell Viability (% Inhibiton) (HEL cells; siNT-1, ABT-263 0.01 uM): 0%
- Cell Viability (% Inhibiton) (HEL cells; siNT-1, ABT-263 0.03 uM): 7%
- Cell Viability (% Inhibiton) (HEL cells; siNT-1, ABT-263 0.1 uM): 30%
- Cell Viability (% Inhibiton) (HEL cells; siNT-1, ABT-263 0.3 uM): 93%
- Cell Viability (% Inhibiton) (HEL cells; siNT-1, ABT-263 1 uM): 98%
- Viability (% Inhibiton) (SET-2 cells; ABT-263 0.003 uM): 0%
- Viability (% Inhibiton) (SET-2 cells; ABT-263 0.01 uM): 3%
- Viability (% Inhibiton) (SET-2 cells; ABT-263 0.03 uM): 4%
- Viability (% Inhibiton) (SET-2 cells; ABT-263 0.1 uM): 28%
- Viability (% Inhibiton) (SET-2 cells; ABT-263 0.3 uM): 63%
- Viability (% Inhibiton) (SET-2 cells; ABT-263 1 uM): 95%
- Viability (% Inhibiton) (MV4;11 cells; ABT-263 0.003 uM): 0%
- Viability (% Inhibiton) (MV4;11 cells; ABT-263 0.01 uM): 1%
- Viability (% Inhibiton) (MV4;11 cells; ABT-263 0.03 uM): 0%
- Viability (% Inhibiton) (MV4;11 cells; ABT-263 0.1 uM): 23%
- Viability (% Inhibiton) (MV4;11 cells; ABT-263 0.3 uM): 30%
- Viability (% Inhibiton) (MV4;11 cells; ABT-263 1 uM): 29%
- Ki (Bcl-w): < 0.001 µM

SMILES: CC(C)(C)c1nc2c3cc[nH]c(=O)c3c3cc(F)ccc3c2[nH]1 [JAKi-I, JAK inhibitor I]
- Ki (PKCzeta): > 5.24 µM
- Ki (PKG1A): > 3.63 µM
- Ki (Rock2): > 3.33 µM
- Bcl-XL protein level (Bcl-XL): sharply declined
